In patent US11806343B2, “Inhibitors of DUX4 induction for regulation of muscle function” (Sonic Master Limited, priority 2017, dated 2023):
Values joined by “and” are separate entries in the source; they are usually repeats but may differ in a detail not shown here. Identical values can stand only once.

Key:
DUX4 [1] = test: DUX4 expression downregulation by kinase family inhibitors (Table 1); type: cell-based; settings: for EC50: DUX4 reduction; for Quantitation % of DUX4 reduction @the lowest significant [C]: at the lowest significant concentration; for lowest significant [C]: concentration in brackets at which the % DUX4 reduction is given
Genea049 FSHD hESC-SkM = test: FSHD hESC-SkM immunocytochemistry, Myosin Heavy Chain and nuclei (myogenic inhibition/toxicity); type: cell-based, human
Method: (§1) FIG. 6 provides an example of a screening and culturing workflow for hESC-SkM assays. At Day 0, hESC-derived myoblasts are thawed into a 96-well plate in myoblast medium (Genea BioCells). On Day 2, the medium is replaced with new myoblast medium containing 1.15 μM. Decitabine. […] On Day 7, the myotubes are analyzed. For example, the myotubes may be analyzed for MHC expression or DUX4 expression.
(§2) Genea049 FSHD-affected human Embryonic Stem Cells (hESCs) were differentiated using Genea's myogenic differentiation protocol (Caron et 2015) to the myoblast stage and cryopreserved. Frozen myoblasts were resuscitated and 4500 cells were plated into each well of a 96-well collagen I coated tissue culture plate in myoblast medium. After two days of cell growth medium was changed to 100 μL per well myoblast medium containing 1.15 μM Decitabine. […] Cells were allowed to differentiate to myotubes for four additional days then were fixed and analyzed for quantification of DUX4 expression, Myosin Heavy Chain expression, and nuclei number. Triplicate wells of each condition were averaged.
as §2, with “et al.,” for “et”, “number by high-content imaging.” for “number.”

DUX4 [2] = test: FSHD hESC-SkM immunocytochemistry, DUX4 expression; type: cell-based, human; settings: Genea049 hESC-SkM
Method: as §1, §2
as §2, with “et al.,” for “et”, “number by high-content imaging.” for “number.”

| Structure (SMILES) | EC50 (DUX4 [1]) | Quantitation % of DUX4 reduction @the lowest significant [C] (DUX4 [1]) | lowest significant [C] (DUX4 [1]) | Myosin Heavy Chain expression and nuclei count, dose curve (Genea049 FSHD hESC-SkM; 10 nM-3 μM, four days) | Myosin Heavy Chain expression and nuclei count (Genea049 FSHD hESC-SkM; 100 nM, four days of culture) | DUX4 expression (DUX4 [2]; 100 nM, four days of culture during myotube formation) | DUX4 expression, dose curve (DUX4 [2]; six concentration points 10 nM-3 μM, four days) |
| --- | --- | --- | --- | --- | --- | --- | --- |
| Cc1ncc(NC(=O)c2ccc(CN3CCN(C)CC3)c(C(F)(F)F)c2)cc1Nc1nccc(-c2cccnc2)n1 [Flumatinib] | 0.082 µM | 76.09% | 2.08 µM | – | – | – | – |
| Cc1ccc(NC(=O)c2ccc(CN3CCN(C)CC3)cc2)cc1Nc1nccc(-c2cccnc2)n1 [Imatinib] | – | 61.13% | – | – | – | – | – |
| Cc1ccc(NC(=O)c2ccc(CN3CC[C@H](N(C)C)C3)c(C(F)(F)F)c2)cc1Nc1nccc(-c2cncnc2)n1 [Bafetinib] | 0.132 µM | 67.90% | 2.08 µM | – | – | – | – |
| CC(C)(C)n1nc(-c2ccc(Cl)cc2)c2c(N)ncnc21 [PP2] | 0.153 µM and 0.287 µM | 41.77% and 66.61% | – | – | – | – | – |
| Cc1cn(-c2cc(NC(=O)c3ccc(C)c(Nc4nccc(-c5cccnc5)n4)c3)cc(C(F)(F)F)c2)cn1 [Nilotinib] | – | 76.71% | 5 µM | – | – | – | – |
| COc1cc(Nc2c(C#N)cnc3cc(OCCCN4CCN(C)CC4)c(OC)cc23)c(Cl)cc1Cl [Bosutinib] | – | 70.58% | 3 µM | – | – | – | – |
| Cc1ccc(NC(=O)c2ccc(CN3CC[C@H](N(C)C)C3)c(C(F)(F)F)c2)cc1Nc1ncc(-c2cncnc2)cn1 [Lyn-IN-1] | 0.175 µM | 70.73% | 0.88 µM | – | – | – | – |
| NS(=O)(=O)OC[C@@H]1C[C@@H](n2ccc3c(N[C@H]4CCc5ccccc54)ncnc32)C[C@@H]1O [GBC0772, MLN4924] | – | – | – | decreased Myosin Heavy Chain expression and nuclei count | decreased Myosin Heavy Chain expression and nuclei count | decreased DUX4 expression | dose-dependent decreased DUX4 expression |
